One assay relates to Septoria tritici. Briefly: Test Example 10 Control Test Against Wheat Leaf Blotch (pot test). The settings on record: 200 ppm foliage spray, wheat (Apogee), inoculated after 4 days. Type of assay: in vivo. As to the method:
(§1) The term of “non-treated well” in Test Example 4, Test Example 5, and Test Example 6 represents a well wherein a test was carried out under the same conditions as those described in each Test Example except for dispensing DMSO instead of a diluted solution with DMSO comprising the Present compound. Also, the term of “non-treated” in Test Examples 15 to 17 represents a test which was carried out under the same conditions as those described in each Test Example except for dispensing DMSO instead of a diluted solution with DMSO comprising the Present compound. Also, the term of “non-treated leaf disk” in Test Example 7 represents a leaf disk wherein a test was carried out under the same conditions as those described in the Test Example except for dispensing DMSO instead of a diluted solution with DMSO comprising the Present compound. Also, the term of “non-treated” in Test Example 10 and Test Example 11 means that a diluted solution with water of a formulation comprising the Present compound was not sprayed.
A plastic pot was filled with soil, wheat (cultivar: Apogee) was seeded thereto, and cultured in a greenhouse for 10 days. […]

Assay [1] concerns Phakopsora pachyrhizi. The assay can be described thus: Test Example 11 Control Test Against Soybean Rust (pot test, spraying before inoculation). The assay is classed as in vivo. The conditions noted are these: 200 ppm foliage spray, soybeans (Kurosengoku), inoculated after 2 to 5 days. A digest of the protocol: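 Soybeans (cv. Kurosengoku), grown 10–14 days in pots, foliar-sprayed with formulated compound at 200 ppm, inoculated 2–5 days later with Phakopsora pachyrhizi spores. Kept humid 1–2 days at 23 °C day/20 °C night, then greenhouse 12 days; lesion area scored against unsprayed plants.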

The subject of assay [2] is Phakopsora pachyrhizi. The assay can be described thus: Test Example 16 Control Test Against Soybean Rust Fungus (spore germination, petri dish). The conditions noted are these: treatment concentration 10 ppm, 23° C., 1 day. The assay is classed as cell-based. As to the method:
as §1
An agar medium (agar concentration: 1.0%) (3 mL) was placed in a plastic petri dish having a diameter of 3.5 cm, and solidified. Each Present compound was diluted with DMSO in such a way that the resulting diluted solution containing 10000 ppm of the compound, and said solution (1 μL) and an aqueous suspension (1.0×10^4/mL) (999 μL) of spores of Phakopsora pachyrhizi to which spores of Phakopsora pachyrhizi were suspended were mixed, and then the resulting mixture was dispensed into the plastic petri dish. This plastic petri dish was cultured at 23° C. for 1 day, and then germinated spores of Phakopsora pachyrhizi were counted. As a result, when the treatment concentration was 10 ppm, and any one of the Present compound 9, 10, 28, 29, or 32 was used as the test compound to carry out the test, the number of germinated spores in each plastic petri dish using the above each Present compound as the test compound was 50% or less relative to the number of germinated spores in the non-treated plastic petri dish.

Assay [3] deals with soybean rust fungus (Phakopsora pachyrhizi) having an amino acid substitution of F129L in a mitochondrial cytochrome b protein. Briefly: Test Example 7 Control Test Against Soybean Rust (leaf disk). The assay is classed as in vivo. The settings on record: 200 ppm, 10 μL per soybean leaf disk (cultivar: Kurosengoku), inoculated after 1 day. A digest of the protocol:
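Soybean (Kurosengoku) leaf disks of 1 cm on 1.2% agar were sprayed with compound in a DMSO/xylene/Sorpol emulsion diluted in water to a prescribed concentration. One day later they were spray-inoculated with F129L cytochrome b mutant P. pachyrhizi spores (1.0×10^5/mL) and kept at 23 °C, 60% humidity, 6 h light, for about 13 days. Lesion area was compared with DMSO-treated disks.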

The subject of another assay is Botrytis cinerea. The assay can be described thus: Test Example 4 Control Test Against Cucumber Botrytis Rot Fungus (96 well titer plate growth). The assay is classed as cell-based. The settings on record: 1 μL of 150 ppm DMSO solution + 150 μL complete medium, 18° C., 4 days, absorbance at 550 nm. As to the method:
The term of “non-treated well” in Test Example 4, Test Example 5, and Test Example 6 represents a well wherein a test was carried out under the same conditions as those described in each Test Example except for dispensing DMSO instead of a diluted solution with DMSO comprising the Present compound. Also, the term of “non-treated” in Test Examples 15 to 17 represents a test which was carried out under the same conditions as those described in each Test Example except for dispensing DMSO instead of a diluted solution with DMSO comprising the Present compound. Also, the term of “non-treated leaf disk” in Test Example 7 represents a leaf disk wherein a test was carried out under the same conditions as those described in the Test Example except for dispensing DMSO instead of a diluted solution with DMSO comprising the Present compound. […]
The Present compound 24 was diluted with DMSO to obtain a diluted solution containing 150 ppm of the compound, and 1 μL of the diluted solution was dispensed into a titer plate (96 well), and thereto was then dispensed 150 μL of a complete medium to which spores of Botrytis cinerea were inoculated in advance. This plate was cultured at 18° C. for 4 days, thereby allowing Botrytis cinerea to undergo proliferation, and the absorbance at 550 nm of each well of the titer plate was then measured to determine a degree of growth of Botrytis cinerea. […]

Assay [4] has as its system Phakopsora pachyrhizi. The assay can be described thus: Test Example 17 Control Test Against Soybean Rust Fungus (spore germination, petri dish). Type of assay: cell-based. The settings on record: method according to Test Example 16. The method, then:
as §1
An agar medium (agar concentration: 1.0%) (3 mL) was placed in a plastic petri dish having a diameter of 3.5 cm, and solidified. […] This plastic petri dish was cultured at 23° C. for 1 day, and then germinated spores of Phakopsora pachyrhizi were counted. […]

`O=S(=O)(c1ccccc1)n1ccc(-c2ccc(Cl)cc2)n1` [compound 4]: the “lesion area relative to the lesion area in the non-treated wheat” value with Septoria tritici is listed as at most 30%. For `O=S(=O)(c1ccccc1)n1ccc(-c2cc(F)c(Br)c(F)c2)n1` [compound 9], the “lesion area relative to the lesion area in the non-treated soybeans” value in the assay with Phakopsora pachyrhizi [1] is given as at most 30%. Moreover, the “number of germinated spores relative to the non-treated plastic petri dish” value with Phakopsora pachyrhizi [2] is on record as at most 50%. Also, the “lesion area relative to the lesion area of non-treated leaf disk” value in assay [3] was at most 30%. For `O=S(=O)(c1cccnc1)n1ccc(-c2cc(F)c(Br)c(F)c2)n1` [compound 10], the “lesion area relative to the lesion area in the non-treated soybeans” value in the assay on Phakopsora pachyrhizi [1] is on record as at most 30%. The “number of germinated spores relative to the non-treated plastic petri dish” value in the assay on Phakopsora pachyrhizi [2] was at most 50%. Further, the “lesion area relative to the lesion area of non-treated leaf disk” value in assay [3] was at most 30%. In the case of `COc1ccccc1S(=O)(=O)n1ccc(-c2cc(F)c(Br)c(F)c2)n1` [compound 24], in the assay on Botrytis cinerea, the “degree of growth relative to the degree of growth in the non-treated well” value is listed as at most 50%. Consider `Cc1ccc(S(=O)(=O)n2ccc(-c3ccc(F)cc3)n2)cc1` [compound 29], for which, in the assay with Phakopsora pachyrhizi [2], the “number of germinated spores relative to the non-treated plastic petri dish” value was at most 50%. As for `Cn1cnc(S(=O)(=O)n2ccc(-c3cccc(C(=O)NC4CC4)c3)n2)c1` [compound 31], the “lesion area relative to the lesion area in the non-treated wheat” value in the assay with Septoria tritici is recorded as at most 30%. `Cn1cnc(S(=O)(=O)n2ccc(-c3cc(F)c(Br)c(F)c3)n2)c1` [compound 32]: the “number of germinated spores relative to the non-treated plastic petri dish” value in the assay with Phakopsora pachyrhizi [2] is reported as at most 50%. Moreover, in assay [3], the “lesion area relative to the lesion area of non-treated leaf disk” value is at most 30%. Consider `Cc1ccc(S(=O)(=O)n2ccc(-c3ccc4c(c3)OC(F)(F)O4)n2)cc1` [compound 61], for which the “number of germinated spores relative to the non-treated plastic petri dish” value in the assay on Phakopsora pachyrhizi [4] is on record as at most 50%.

Source of the values: patent US20260344668A1, “PHENYLPYRAZOLE COMPOUND, AND PLANT DISEASE CONTROL METHOD” (priority 2022, published 2026).
